Where two headings read alike, the source gives them in different places.
Assays:
CXCR4 = CXCR4 (Mus musculus, UniProt P70658); conditions: at 2 h; plerixafor 5 mg/kg i.v. 15 min before cell transfer
Description: A CXCR4 inhibitor, plerixafor (Adooq Bioscience, Irvine, Calif.), was used to interrogate the role of CXCR4 in BM cell migration (n=4). Mice received an i.v. injection of plerixafor (5 mg/kg) 15 min before and 1 day after the ^89Zr-oxine labeled BM cell transfer (331 kBq/2×10^7 cells). Another group of mice received concurrent i.v. injections of G-CSF (2.5 μg, n=4). Deferoxamine was injected intramuscularly 15 min before and 1, 2, 3 and 4 hr after the cell injection. Serial microPET/CT images were acquired.

DCs = system: DCs
Description: (§1) After ^89Zr-oxine complex labeling, DCs were stimulated with LPS (5 ng/ml) overnight. CD8 T cells labeled with ^89Zr-oxine complex were stimulated with plate coated anti-CD3 antibody (10 μg/ml) and anti-CD28 antibody (5 μg/ml) for 3 days, then transferred to an antibody-free culture supplemented with human IL-15 (3 nM).
(§2) CTLs, both labeled and unlabeled, were activated by plate coated anti-CD3 antibody (10 μg/ml) and anti-CD28 antibody (5 μg/ml) for 1.5 day and expression of CD3, CD8, CD44, CD25, CD69, INF-γ and IL-2 which was evaluated by flow cytometry. Bone marrow-derived DCs on day 6 of culture with or without ^89Zr-oxine complex labeling were stimulated with LPS (1 ng/ml) overnight and surface expression of CD11c, CD80, CD86, CD40, MHC class I and MHC class II was examined. In another experiment, ^89Zr-labeled DCs were stimulated with LPS in the presence of OVA overnight, transferred to Rag1KO mice expressing Ly5.2 (2 million cells) pre-injected with CMFDA labeled OT-1 CD8 T cells expressing Ly5.1. Peripheral blood and splenocytes were collected 3.5 days later and dilution of CMFDA in OT-1 T cells was analyzed using flow cytometry gated on Ly5.1+ CD8 T cells.

BM cells [1] = system: BM cells
Description: The surface expressions of CD117, sca-1 and lineage markers (CD3, NK1.1, Ly6G, CD2, CD5 and B220) on BM cells were examined before and after ^89Zr-oxine labeling (3.15 kBq/2×10^6) and analyzed by flow cytometry using a FACS Calibur flow cytometer (Becton Dickinson, San Jose, Calif.) and analyzed using FlowJo software (Tree Star, Inc., Ashland, Oreg.). BM cell differentiation capability was examined by culturing the ^89Zr-labeled and non-labeled cells with GM-CSF (20 ng/ml) and IL-15 (25 nM) for differentiation to DCs and NK/NK-T cells (n=3). On day 10, the cells were harvested, stained with anti-CD11c, CD86, and NK1.1 antibodies, and analyzed on flow cytometry. For the GM-CSF culture, cell associated-^89Zr activity and cell number were also examined.

CTLs [2] = conditions: TCR stimulation then withdrawal, vs non-labeled
Description: as §1

CTLs [3] = conditions: TCR stimulation
Description: as §2
CTLs were TCR stimulated after the ^89Zr-oxine complex labeling.

BM cells [4] = system: BM cells; remark: listed apart in the source
Description: BM cells were incubated with 11.0-55.5 kBq/10^6 cells of ^89Zr-oxine complex in PBS at 25:1 volume ratios for 20 minutes, washed twice in RPMI media and transferred to a new tube. […] To determine cell viability and retention of ^89Zr after the labeling, BM cells were labeled with 2 different radioactivity doses, 28.12 kBq/10^6 and 8.14 kBq/10^6 cells, and cultured with SCF, FLT3L and TPO (100 ng/ml each). The number of live cells was counted using 0.4% trypan blue dye (Life Technologies) at 0 h, 2 d, 4 d, and 7 d (n=3). At each time point, the cell suspension was spun to separate the supernatant and the cell pellet, and the radioactivity of both fractions was measured by a γ-counter (WIZARD^2 automatic gamma-counter, Perkin Elmer, Waltham, Mass.).

CXCR4, sequence (P70658 whole entry): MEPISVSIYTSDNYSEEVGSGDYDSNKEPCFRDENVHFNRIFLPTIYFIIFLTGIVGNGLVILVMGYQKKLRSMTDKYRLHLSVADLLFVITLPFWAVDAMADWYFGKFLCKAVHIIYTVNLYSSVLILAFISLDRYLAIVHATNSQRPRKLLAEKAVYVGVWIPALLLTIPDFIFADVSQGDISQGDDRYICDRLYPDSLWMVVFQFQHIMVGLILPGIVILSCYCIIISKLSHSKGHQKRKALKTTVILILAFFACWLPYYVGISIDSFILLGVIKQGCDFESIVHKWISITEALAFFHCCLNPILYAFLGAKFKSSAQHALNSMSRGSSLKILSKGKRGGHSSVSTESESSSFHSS

## c1cc(CN2CCCNCCNCCCNCC2)ccc1CN1CCCNCCNCCCNCC1 [plerixafor]
CXCR4
  migration of labeled cells to the BM: significantly inhibited

## c1cnc2c([O][89Zr]([O]c3cccc4cccnc34)([O]c3cccc4cccnc34)[O]c3cccc4cccnc34)cccc2c1 [^89Zr-oxine complex]
DCs; labeled DCs stimulated with LPS and OVA, injected into mice, flow cytometry 4 days after transfer
  antigen presentation to OT-1 T cells in vivo: capable of presenting the antigen and inducing T cell activation and proliferation as well as non-labeled DCs
DCs; prior to LPS activation
  expression of B7 molecules, CD80 and CD86, on DCs: slightly increased expression
BM cells [1]; 10 day culture with GM-CSF or IL-15
  capacity to proliferate and differentiate: retained the capacity to proliferate and differentiate normally into mature cells
BM cells [1]; BM cells, 3.15 kBq/2×10^6
  expression of CD117, sca-1 and lineage markers: at similar levels to non-labeled controls
CTLs [2]
  proliferation and contraction of labeled CTLs: similarly to the non-labeled controls
CTLs [3]
  production of IFNγ and IL-2: did not negatively affect
CTLs [3]; labeled vs non labeled CTLs
  upregulation of CD69, CD25 and CD44 markers: at the similar levels
BM cells [4]; BM cells labeled at 8.14 kBq/10^6 cells
  live cell number: slight proliferation after day 4
BM cells [4]; BM cells labeled at 28.12 kBq/10^6 cells
  live cell number: slightly decreased in number
BM cells [4]; BM cells, lower labeling dose (8.14 kBq/10^6 cells), vs non-labeled control
  suppression of the proliferation: approximately 50%

— patent US11192903B2, “Zirconium-89 oxine complex as a cell labeling agent for positron emission tomography” (The United States of America, as represented by the …, priority 2014, dated 2021)
